Source: ChEMBL document CHEMBL1201862, “PubChem BioAssay data set” (2004)
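Results reflect a 48-hour exposure of cells in 96-well plates to compound at five concentrations. Abbreviation: GI50, concentration required for 50% inhibition of growth.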 Active and inactive are the calls of the source. Cut-off read from the data, not from the text of the source: active = GI50 up to about 1.1 µM and inactive = higher. Residues, ends and D or L forms follow the SMILES beside them.

Columns and labels:
Experiment in all cases: inhibition of tumour cell growth, NCI panel, 48 h
A498 = tested on: A498
A549 = tested on: A549
BT-549 = tested on: BT-549
HL-60 = tested on: HL-60
HT-29 = tested on: HT-29
KM12 = tested on: KM12
LOX IMVI = tested on: LOX IMVI
MDA-MB-231 = tested on: MDA-MB-231
NCI-H226 = tested on: NCI-H226
OVCAR-3 = tested on: OVCAR-3
OVCAR-8 = tested on: OVCAR-8
SF-268 = tested on: SF-268
SK-OV-3 = tested on: SK-OV-3
SNB-19 = tested on: SNB-19
SNB-75 = tested on: SNB-75
SW-620 = tested on: SW-620
T47D = tested on: T47D
UO-31 = tested on: UO-31
MCF7 = tested on: MCF7

Row | SMILES | GI50 (A498) | GI50 (A549) | GI50 (BT-549) | GI50 (HL-60) | GI50 (HT-29) | GI50 (KM12) | GI50 (LOX IMVI) | GI50 (MDA-MB-231) | GI50 (NCI-H226) | GI50 (OVCAR-3) | GI50 (OVCAR-8) | GI50 (SF-268) | GI50 (SK-OV-3) | GI50 (SNB-19) | GI50 (SNB-75) | GI50 (SW-620) | GI50 (T47D) | GI50 (UO-31) | GI50 (MCF7)
1 | C[C@]12CC[C@H](O)C[C@@H]1CC[C@@H]1[C@@H]2CC[C@]2(C)[C@@H](C3=CC(=O)OC3)CC[C@]12O | 4.5 µM (inactive) | 0.627 µM (active) | 1.88 µM (inactive) | 2.88 µM (inactive) | 3.44 µM (inactive) | 5.81 µM (inactive) | 2.59 µM (inactive) | 8.89 µM (inactive) | 11.2 µM (inactive) | 3.12 µM (inactive) | 3.08 µM (inactive) | 1.75 µM (inactive) | 3.21 µM (inactive) | 4.95 µM (inactive) | 3.85 µM (inactive) | 3.51 µM (inactive) | 3.77 µM (inactive) | 2.37 µM (inactive) | –
2 | Cn1cc(C2NC(=O)c3ccccc3N2)c2ccccc21 (stereo not drawn) | 0.206 µM (active) | 1.22 µM (inactive) | > 100 µM (inactive) | 0.12 µM (active) | 0.191 µM (active) | 0.0612 µM (active) | 0.877 µM (active) | 2.14 µM (inactive) | 0.746 µM (active) | 0.489 µM (active) | – | 3.86 µM (inactive) | 0.35 µM (active) | 1.55 µM (inactive) | 0.873 µM (active) | 0.542 µM (active) | – | > 100 µM (inactive) | 0.124 µM (active)
3 | O=[N+]([O-])c1ccc2nc(-c3ccccn3)c(-c3ccccn3)nc2c1 | > 100 µM (inactive) | 57.4 µM (inactive) | > 100 µM (inactive) | 28 µM (inactive) | 40.5 µM (inactive) | > 100 µM (inactive) | – | – | > 100 µM (inactive) | 29.4 µM (inactive) | 94 µM (inactive) | > 100 µM (inactive) | > 100 µM (inactive) | > 100 µM (inactive) | > 100 µM (inactive) | 41.9 µM (inactive) | > 100 µM (inactive) | > 100 µM (inactive) | 57.7 µM (inactive)
4 | CCCCc1ccc(-n2sc3ncc(-c4ccccc4)cc3c2=O)cc1 | > 100 µM (inactive) | > 100 µM (inactive) | 59.6 µM (inactive) | > 100 µM (inactive) | – | > 100 µM (inactive) | > 100 µM (inactive) | – | > 100 µM (inactive) | > 100 µM (inactive) | 43.2 µM (inactive) | – | > 100 µM (inactive) | > 100 µM (inactive) | > 100 µM (inactive) | > 100 µM (inactive) | 22.6 µM (inactive) | > 100 µM (inactive) | > 100 µM (inactive)
5 | CCN(CC)C(=S)SS(=O)(=O)c1ccc(C)cc1 | > 100 µM (inactive) | – | 28.7 µM (inactive) | – | 13.2 µM (inactive) | 14.2 µM (inactive) | 17.4 µM (inactive) | 35.7 µM (inactive) | 52 µM (inactive) | 39.6 µM (inactive) | 19.5 µM (inactive) | 55.2 µM (inactive) | > 100 µM (inactive) | 61.1 µM (inactive) | – | 19.9 µM (inactive) | 59.7 µM (inactive) | 20.7 µM (inactive) | –
6 | CCOc1ccccc1/C=C1\NC(=O)N(/C=C2\C(=O)Oc3ccccc3C2=O)C1=O | – | 42.6 µM (inactive) | 50.9 µM (inactive) | 20.5 µM (inactive) | 65.5 µM (inactive) | 43 µM (inactive) | 63.7 µM (inactive) | 44.6 µM (inactive) | 35.5 µM (inactive) | 30.8 µM (inactive) | 80.9 µM (inactive) | > 100 µM (inactive) | 59.7 µM (inactive) | 61.7 µM (inactive) | 69.2 µM (inactive) | 51.5 µM (inactive) | – | 23.1 µM (inactive) | 46.2 µM (inactive)
7 | Cc1c(N2C(=O)/C(=C/C=C/c3ccccc3)N=C2c2ccccc2)c(=O)n(-c2ccccc2)n1C | – | 25.6 µM (inactive) | 20.1 µM (inactive) | 11.8 µM (inactive) | 20.3 µM (inactive) | 25.5 µM (inactive) | 21.5 µM (inactive) | 22.1 µM (inactive) | 24.7 µM (inactive) | 20.4 µM (inactive) | 26.1 µM (inactive) | 22.6 µM (inactive) | 23 µM (inactive) | – | 3.78 µM (inactive) | 31.6 µM (inactive) | 30.8 µM (inactive) | 18.4 µM (inactive) | 28.8 µM (inactive)
8 | CC(=O)n1nc(-c2ccccc2)n(/N=C/c2ccc([N+](=O)[O-])cc2)c1=O | > 100 µM (inactive) | > 100 µM (inactive) | > 100 µM (inactive) | > 100 µM (inactive) | > 100 µM (inactive) | > 100 µM (inactive) | > 100 µM (inactive) | 35 µM (inactive) | > 100 µM (inactive) | > 100 µM (inactive) | 98.2 µM (inactive) | 43.5 µM (inactive) | 52.8 µM (inactive) | > 100 µM (inactive) | > 100 µM (inactive) | > 100 µM (inactive) | > 100 µM (inactive) | > 100 µM (inactive) | –
9 | O=C(O)c1ccc(NC(NC(=O)C(C(F)(F)F)C(F)(F)F)(C(F)(F)F)C(F)(F)F)cc1 | > 100 µM (inactive) | > 100 µM (inactive) | > 100 µM (inactive) | > 100 µM (inactive) | > 100 µM (inactive) | – | > 100 µM (inactive) | – | – | – | > 100 µM (inactive) | > 100 µM (inactive) | > 100 µM (inactive) | > 100 µM (inactive) | > 100 µM (inactive) | > 100 µM (inactive) | > 100 µM (inactive) | > 100 µM (inactive) | –
10 | NCCNCCNc1ccc(NCCNCCN)c2c1C(=O)c1c(O)ccc(O)c1C2=O | 70 µM (inactive) | > 100 µM (inactive) | > 100 µM (inactive) | – | > 100 µM (inactive) | > 100 µM (inactive) | > 100 µM (inactive) | > 100 µM (inactive) | > 100 µM (inactive) | > 100 µM (inactive) | > 100 µM (inactive) | > 100 µM (inactive) | > 100 µM (inactive) | > 100 µM (inactive) | > 100 µM (inactive) | > 100 µM (inactive) | – | > 100 µM (inactive) | 59.7 µM (inactive)
11 | CCC(C)C(NC(=O)C(CCCCN)NC(=O)C(NC(=O)C(CCC(N)=O)NC(=O)C(N)CCCNC(=N)N)C(C)CC)C(=O)NC(Cc1c[nH]c2ccccc12)C(=O)NC(Cc1ccccc1)C(=O)NC(CCC(N)=O)C(=O)NC(CC(N)=O)C(=O)NC(CCCNC(=N)N)C(=O)NC(CCCNC(=N)N)C(=O)NC(CCSC)C(=O)NC(CCCCN)C(=O)NC(Cc1c[nH]c2ccccc12)C(=O)NC(CCCCN)C(=O)NC(CCCCN)C(=O)N1CCCC1C(=O)NC(C)C(=O)NC(CCCCN)C(=O)NC(CCCNC(=N)N)C(=O)NC(CCCCN)C(=O)NC(CC(C)C)C(=O)NC(Cc1ccccc1)C(=O)NCC(=O)O (stereo not drawn) (H-RQIKIWFQNRRMKWKKPAKRKLFG-OH; configuration not given here) | – | > 25 µM (inactive) | > 25 µM (inactive) | 6.93 µM (inactive) | > 25 µM (inactive) | 9.31 µM (inactive) | > 25 µM (inactive) | 10.5 µM (inactive) | > 25 µM (inactive) | > 25 µM (inactive) | > 25 µM (inactive) | 15.9 µM (inactive) | > 25 µM (inactive) | > 25 µM (inactive) | > 25 µM (inactive) | > 25 µM (inactive) | – | > 25 µM (inactive) | > 25 µM (inactive)
